Laboratory results reported in patent US10016378B2, “Compositions and methods for inhibiting intimal hyperplasia” (priority 2014, dated 2018).
Entries after “also recorded” stand apart in the source; their conditions may differ.

Tests used:
[1] = Side-effects in the various in vivo models
[2] = tested on: balloon-injured rat aortas; assay: Balloon injury (abdominal aortic denudation) of Lewis rat aortas; format: in vivo, Lewis rats
Protocol: For example, abdominal aortic denudation in Lewis rats was performed to induce neointimal proliferation. […] The development of intimal hyperplasia was analyzed by histopathology. Confocal immunofluorescence microscopy and 3-dimensional reconstruction was performed to identify cell proliferation (Ki67) and apoptosis (TUNEL).

human vascular SMCs = assay: Cultured human vascular SMCs, PDGF stimulation / staurosporine apoptosis induction; format: cell-based; conditions: VDAC closure/inhibition
Excerpt: Proliferation and apoptosis leveled off after twenty eight (28) days when there was also no further progression of myointimal disease (FIGS. 1c, 1e). […] Human vascular SMCs were isolated from fresh hMA and characterized (Extended Data FIGS. 4e-4f). PDGF was then shown to induce ΔΨm hyperpolarization in cultured SMCs (Extended Data FIG. 4g), similar to the ΔΨm hyperpolarization previous observed in injured hMAs (FIG. 1f). Thus, mitochondrial ΔΨm hyperpolarization in myointimal SMCs and cultured SMCs coincided with the availability of PDGF.

For `O=C(O)C(Cl)Cl` [DCA, dichloroacetate], the “side-effects or off-target effects” value [1] was “didn't show any side-effects or off-target effects”, the “luminal obliteration (intimal hyperplasia)” value ([2]; DCA treatment for 28 days via drinking water (0.75 g/L), p=0.006 vs. untreated 28-day control (24.2±3.5%)) was 7.9±6.3% and the “luminal obliteration (neointimal formation)” value ([2]; delayed DCA treatment starting on day 14, p=0.001 vs. untreated 28-day control) was 3.5±2.9%. For the same compound, the vessel re-endothelialization ([2]; in vivo, after mechanical endothelial denudation) was “does not impair; also recorded: did not prevent vessel re-endothelialization; also recorded: nor inhibited vessel re-endothelialization”.

In the case of `Cc1ccc(NC(=O)c2ccc(CN3CCN(C)CC3)cc2)cc1Nc1nccc(-c2cccnc2)n1` [imatinib], the myointimal lesions ([2]; compared to untreated control 28 vessels) is reported as “only minor lesions”.

For `O=S(=O)(O)c1cc(N=C=S)ccc1C=Cc1ccc(N=C=S)cc1S(=O)(=O)O` [DIDS], the “SMC ΔΨm” value (human vascular SMCs) was “caused ΔΨm hyperpolarization; also recorded: increased” and the apoptosis (human vascular SMCs; staurosporine-induced) was “rendered SMCs resistant; also recorded: reduced”.
